Laboratory results reported in US6160175A, “Naphthyl acetamides as sPLA2 inhibitors” (Eli Lilly and Company, priority 1996, dated 2000).

Target: T1, recombinant human secreted phospholipase A2 (Homo sapiens, UniProt P14555)
T1 sequence (P14555 21-144): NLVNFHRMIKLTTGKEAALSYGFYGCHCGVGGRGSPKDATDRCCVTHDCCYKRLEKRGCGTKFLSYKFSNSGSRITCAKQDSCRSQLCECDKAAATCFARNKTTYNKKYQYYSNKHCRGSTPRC
Assay: Chromogenic assay; Human Secreted Phospholipase A2 Inhibition Tests
Format: biochemical
Settings: racemic diheptanoyl thio-PC substrate 1 mM, Triton X-100 0.29 mM, pH 7.5, 40° C., 30 minutes, 405 nm; read-out: Inhibition of human secreted PLA2, IC50 ± mean deviation (3-4 tests)
Text: The following chromogenic assay procedure was used to identify and evaluate inhibitors of recombinant human secreted phospholipase A2. The assay described herein has been adapted for high volume screening using 96 well microtiter plates. A general description of this assay method is found in the article, "Analysis of Human Synovial Fluid Phospholipase A2 on Short Chain Phosphatidylcholine-Mixed Micelles: Development of a Spectrophotometric Assay Suitable for a Microtiterplate Reader", by Laure J. Reynolds, Lori L. Hughes, and Edward A. Dennis, Analytical Biochemistry, 204, pp. 190-197, 1992 (the disclosure of which is incorporated herein by reference):
A measured volume of racemic dipheptanoyl thio PC supplied in chloroform at a concentration of 100 mg/ml is taken to dryness and redissolved in 10 millimolar TRITON X-100™ nonionic detergent aqueous solution. Reaction Buffer is added to the solution, then DTNB to give the Reaction Mixture.
The reaction mixture thus obtained contains 1 mM diheptanoly thio-PC substrate, 0.29 mm Triton X-100™ detergent, and 0.12 mm DTMB in a buffered aqueous solution at pH 7.5.
1. Add 0.2 ml reaction mixture to all wells;
2. Add 10 ul test compound (or solvent blank) to appropriate wells, mix 20 seconds;
3. Add 50 nanograms of sPLA2 (10 microliters) to appropriate wells;
4. Incubate plate at 40° C. for 30 minutes;
5. Read absorbance of wells at 405 nanometers with an automatic plate reader.
All compounds were tested in triplicate. Typically, compounds were tested at a final concentration of 5 ug/ml. […] Lack of color development at 405 nanometers evidenced inhibition. Compounds initially found to be active were reassayed to confirm their activity and, if sufficiently active, IC50 values were determined. […] In all cases, % inhibition measured at 405 nanometers generated by enzyme reactions containing inhibitors relative to the uninhibited control reactions was determined. […] IC50 were determined by plotting log concentration versus inhibition values in the range from 10-90% inhibition.

Row | IC50 | Compound
1 | 4.4 µM | NC(=O)Cc1ccc(Oc2ccccc2)c2ccccc12 [Compound C, 4-Phenoxynaphth-1-yl acetamide]
2 | 0.87 µM | NC(=O)Cc1ccc(Cc2ccccc2)c2ccccc12 [Compound A, 4-Benzyl-1-naphphylacetamide]
3 | 51 µM | O=C(O)Cc1ccc(Oc2ccccc2)c2ccccc12 [Compound B, 4-Phenoxynaphth-1-yl acetic acid]
